Data taken from patent US20080207563A1, “METHOD FOR INHIBITING PROLIFERATION OF TUMOR CELLS” (priority 2007, published 2008).

Tests used:
[1] = tested on: HT-29 colorectal cancer cells; assay: Cell viability (MTT) assay, single agents and combinations with erlotinib; type: cell-based, human; conditions: for combination effect of the two drugs: erlotinib in the presence of low doses of MEK inhibitor, HT-29, simultaneous or sequential
Procedure: (§1) Cell respiration, as an indicator of cell viability, is measured by the reduction of 3-(4,5-Dimethylthiazol-2-yl)-2,5-diphenyltetrazolium bromide (MTT) to formazan. HT-29 cells are maintained in McCoy's 5a medium (modified) containing 10% fetal bovine serum and are seeded to 96-well microtiter dishes at 2,000 cells/well in a 100 μl volume while MDA-MB-468 cells are maintained in Dulbecco's modified Eagle's medium containing 10% fetal bovine serum and are seeded to 96-well microtiter dishes at 4,000 cells/well in a volume 100 μl. On the following day, the cells are exposed to compounds in an additional 100 μl at the indicated concentrations and cultured for 5 days. After the addition of 50 μl/well of a 5 mg/ml MTT stock in Dulbecco's phosphate-buffered saline (PBS), the cells are incubated for an additional 2.5 hours at 37° C. Thereafter, the medium is removed and 50 μl of 100% ethanol is added to each well to dissolve the formazan crystals. The conversion of MTT into formazan by viable cells is assessed by a microplate reader at 570 nm. The results are presented as a percentage of the viability of untreated cells (control), which are regarded as 100% viable.
(§2) Dose-response interactions (antagonism, additive, and synergism) of two drugs are expressed as the Fa-Cl (the fraction affected by dose-the combination index) plot using the method of Chou and Talalay described in Advances in Enzyme Regulation, Volume 22, pp. 27-55 (1984) processed by the computer software Calcusyn (BIOSOFT, Cambridge, UK). This program provides objective computerized evaluation procedures. For mutually non-exclusive drugs that have totally independent modes of action, Cl<1, =1, and >1 indicates synergism, additive effect, and antagonism, respectively. The data are supported by classic isobolograms made by the same program. The isobolograms can be generated at different effect levels, e.g., ED50, ED70 and ED90. When it is generated at ED50, if the combination data points for Fa=0.5 falls on the diagonal, an additive effect is indicated; if it falls on the lower left, synergism is indicated; and if it falls on the upper right, antagonism is indicated. If a single drug is not very effective, and an ED50 can not be achieved, the results Fa-Cl or Isobologram can not be provided. In this case, the results are shown as classic dose-effect relationship charts.

[2] = tested on: MDA-MB-468 breast cancer cells; assay: as above; type: cell-based, human; conditions: for growth suppression / growth inhibitory effect: single agent treatment, in vitro, MDA-MB-468
Procedure: as §1, §2

Compound | combination effect of the two drugs [1] | combination index (Cl) values, Isobolograms ([2]; combination with erlotinib, ED50, ED75, ED90, all three treatment schedules, CalcuSyn) | combination index (Cl), Fa-Cl plot ([2]; combination with erlotinib, Fa >40%, simultaneous or sequential addition, MTT on day 5, CalcuSyn) | combination effect of the two drugs ([2]; combination with erlotinib, MDA-MB-468, simultaneous or sequential) | growth suppression / growth inhibitory effect [2] | EC50 ([1]; Homo sapiens, single agent, HT-29, ED50 can not be reached) [µM] | sensitivity of the cells to single agent treatment ([1]; single agent, HT-29 (braf mutation))
C[C@@H](c1ccccc1)[C@@H](C(=O)Nc1ccc(I)cc1F)N1C(=O)N[C@H](c2ccc(OCCO)cc2)C1=O [Example 48, (2S,3S)—N-(2-Fluoro-4-iodo-phenyl)-2-{(R)-4-[4-(2-hydroxy-ethoxy)-phenyl]-2,5-dioxo-imidazolidin-1-yl}-3-phenyl-butyramide] | synergistic effects |  |  |  |  |  | 
C[C@@H](c1ccccc1)[C@@H](C(=O)Nc1ccc(I)cc1F)N1C(=O)N[C@H](c2ccc(OC[C@H](O)CO)cc2)C1=O [Example 56, (2S,3S)-2-{(R)-4-[4-((R)-2,3-Dihydroxy-propoxy)-phenyl]-2,5-dioxo-imidazolidin-1-yl}-N-(2-fluoro-4-iodo-phenyl)-3-phenyl-butyramide] | synergistic effects | < 0.5 | < 1 | synergism | significantly less growth inhibitory effect |  | 
C[C@@H](c1ccccc1)[C@@H](C(=O)Nc1ccc(I)cc1Cl)N1C(=O)N[C@H](c2ccc(OC[C@H](O)CO)cc2)C1=O [Example 114, (2S,3S)—N-(2-Chloro-4-iodo-phenyl)-2-{(R)-4-[4-((R)-2,3-dihydroxy-propoxy)-phenyl]-2,5-dioxo-imidazolidin-1-yl}-3-phenyl-butyramide] | synergistic effects |  |  |  |  |  | 
C#Cc1cccc(Nc2ncnc3cc(OCCOC)c(OCCOC)cc23)c1 [erlotinib, N-(3-ethynylphenyl)-6,7-bis(2-methoxyethoxy)-4-quinazolinamine, reference compound] |  |  |  |  | significant growth suppression | > 30 | very resistant
